Series [1] is described as follows: Cytotoxic effect on RAW 264.7 using MTT assay. It counts as cell-based. As to conditions: mouse, RAW 264.7 cells. In general terms: Formazan colour is commonly taken as a measure of viable cells.
Series [2] has as its system NO production in RAW264.7 stimulated by LPS. In words: NO production in LPS-stimulated RAW 264.7. It counts as cell-based. The settings on record: Mus musculus, RAW264.7, read-out: % inhibition of NO production.
Series [3] has as its target acetylcholinesterase (AChE) (Homo sapiens, UniProt P22303). In words: Acetylcholinesterase inhibition assay. It counts as biochemical.
The subject of a further series is TNF-α. In words: TNF-α level in LPS-induced RAW 264.7. It counts as cell-based. The settings on record: RAW 264.7, in comparison to LPS treated cells.
Series [4] in a line: In vitro hydrolysis / chemical stability in buffers. It counts as physicochemical. As to conditions: 0.1 M HCl (simulated gastric conditions), pH 1.4.
The test system of the next series is IL-1β. In words: IL-1β level in LPS-induced RAW 264.7. It counts as cell-based. As to conditions: RAW 264.7, in comparison to LPS treated cells.
The next series relates to IL-6. Briefly: IL-6 level in LPS-induced RAW 264.7. It counts as cell-based.
The next series concerns SK-N-SH Cells. As to conditions: Aβ-induced SK-N-SH cells, increased from 20%; cited from earlier work.
A further series deals with TNF. As to conditions: 20 μM, LPS stimulated RAW264.7; cited from earlier work.

Chain of acetylcholinesterase (AChE) (P22303 32-614, species assumed): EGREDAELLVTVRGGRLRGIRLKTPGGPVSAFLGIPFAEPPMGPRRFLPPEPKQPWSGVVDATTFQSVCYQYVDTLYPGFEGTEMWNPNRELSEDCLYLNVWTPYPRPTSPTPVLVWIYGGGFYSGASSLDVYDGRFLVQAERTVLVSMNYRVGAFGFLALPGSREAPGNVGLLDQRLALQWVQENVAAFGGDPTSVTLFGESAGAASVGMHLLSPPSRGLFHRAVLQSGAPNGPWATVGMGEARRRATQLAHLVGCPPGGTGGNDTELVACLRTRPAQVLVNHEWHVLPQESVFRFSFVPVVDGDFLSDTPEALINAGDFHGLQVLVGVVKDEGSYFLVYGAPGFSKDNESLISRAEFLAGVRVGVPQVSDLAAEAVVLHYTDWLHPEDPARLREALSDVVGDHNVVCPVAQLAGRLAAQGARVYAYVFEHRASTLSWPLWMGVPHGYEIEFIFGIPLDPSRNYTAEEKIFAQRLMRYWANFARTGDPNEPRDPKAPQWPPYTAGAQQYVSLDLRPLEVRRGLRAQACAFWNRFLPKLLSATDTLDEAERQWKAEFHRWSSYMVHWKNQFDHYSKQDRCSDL

With `Cc1ccc(C(C)C)c(OC(=O)Cn2cc(COC(=O)Cn3cnc4c3c(=O)n(C)c(=O)n4C)nn2)c1` [15b, (1-(2-(2-Isopropyl-5-methylphenoxy)-2-oxoethyl)-1H-1,2,3-triazol-4-yl)methyl-2-(1,3-dimethyl-2,6-dioxo-1,2,3,6-tetrahydro-7H-purin-7-yl)acetate], in [1], the viability at 24 h, 50 µM came to 97 ± 0.6%. For the same compound, the inhibition at 25 µM in series [2] is 68.6 ± 0.92%.

In the case of `Cn1c(=O)c2c(ncn2CC(=O)OCc2cn(-c3cc(=O)oc4ccccc34)nn2)n(C)c1=O` [15c, (1-(2-Oxo-2H-chromen-4-yl)-1H-1,2,3-triazol-4-yl)methyl-2-(1,3-dimethyl-2,6-dioxo-1,2,3,6-tetrahydro-7H-purin-7-yl)acetate], the viability at 24 h, 50 µM in [1] worked out at 88 ± 0.8%. In series [3], this compound showed a half-inhibitory concentration (IC50) of 9.8 ± 0.7 µM. In addition, in [2], the inhibition at 25 µM was 85 ± 0.88%.

With `Cn1c(=O)c2c(ncn2CC(=O)N/N=C/c2ccccc2)n(C)c1=O` [18a, E-N′-Benzylidene-2-(1,3-dimethyl-2,6-dioxo-1,2,3,6-tetrahydro-7H-purin-7-yl)acetohydrazide], the viability at 24 h, 50 µM in series [1] came to 94 ± 0.2%. In series [2], the inhibition at 25 µM amounted to 65.4 ± 0.84%.

Take `Cn1c(=O)c2c(ncn2CC(=O)N/N=C/c2ccc(O)cc2)n(C)c1=O` [18b, (E)-2-(1,3-Dimethyl-2,6-dioxo-1,2,3,6-tetrahydro-7H-purin-7-yl)-N′-(4-hydroxybenzylidene)acetohydrazide]: the viability at 24 h, 50 µM in series [1] came out at 87 ± 0.8%. The inhibition at 25 µM in series [2] stood at 71.8 ± 0.9%.

As for `COc1ccc(OC)c(/C=N/NC(=O)Cn2cnc3c2c(=O)n(C)c(=O)n3C)c1` [18c, E-N′-(2,5-Dimethoxybenzylidene)-2-(1,3-dimethyl-2,6-dioxo-1,2,3,6-tetrahydro-7H-purin-7-yl)acetohydrazide], the viability at 24 h, 50 µM in series [1] turned out to be 88 ± 0.8%. In addition, the inhibition at 25 µM in series [2] stood at 75 ± 0.88%.

As to `COc1ccc(/C=N/NC(=O)Cn2cnc3c2c(=O)n(C)c(=O)n3C)cc1OC` [18d, E-N′-(3,4-Dimethoxybenzylidene)-2-(1,3-dimethyl-2,6-dioxo-1,2,3,6-tetrahydro-7H-purin-7-yl)acetohydrazide], the viability at 24 h, 50 µM in [1] is 90 ± 1%. Further, in series [2], the inhibition at 25 µM was determined as 70.7 ± 0.87%.

In the case of `COc1cc(/C=N/NC(=O)Cn2cnc3c2c(=O)n(C)c(=O)n3C)cc(OC)c1OC` [18e, (E)-2-(1,3-Dimethyl-2,6-dioxo-1,2,3,6-tetrahydro-7H-purin-7-yl)-N′-(3,4,5-trimethoxybenzylidene)acetohydrazide], the viability at 24 h, 50 µM in [1] was found to be 92 ± 1%. In addition, the inhibition at 25 µM in series [2] is 71.8 ± 0.9%.

For `COc1cccc(/C=N/NC(=O)Cn2cnc3c2c(=O)n(C)c(=O)n3C)c1` [18f, (E)-2-(1,3-Dimethyl-2,6-dioxo-1,2,3,6-tetrahydro-7H-purin-7-yl)-N′-(3-methoxybenzylidene)acetohydrazide], the viability at 24 h, 50 µM in [1] turned out to be 91 ± 1%. Further, the inhibition at 25 µM in series [2] came out at 63.2 ± 0.93%.

With `Cn1c(=O)c2c(ncn2CC(=O)N/N=C/c2ccccc2O)n(C)c1=O` [18g, (E)-2-(1,3-Dimethyl-2,6-dioxo-1,2,3,6-tetrahydro-7H-purin-7-yl)-N′-(2-hydroxybenzylidene)acetohydrazide], in series [1], the viability at 24 h, 50 µM was determined as 92 ± 1%. Moreover, the inhibition at 25 µM in [2] is 66.4 ± 0.79%.

Turning to `Cn1c(=O)c2c(ncn2CC(=O)N/N=C/c2ccc3c(c2)OCO3)n(C)c1=O` [18h, (E)-N′-(Benzo[d][1,3]dioxol-5-ylmethylene)-2-(1,3-dimethyl-2,6-dioxo-1,2,3,6-tetrahydro-7H-purin-7-yl)acetohydrazide], the viability at 24 h, 50 µM in series [1] stood at 93 ± 1%. Further, the inhibition at 25 µM in series [2] came to 96.6 ± 0.87%.

On to `COc1ccc(/C=N/NC(=O)Cn2cnc3c2c(=O)n(C)c(=O)n3C)cc1O` [18i, (E)-2-(1,3-Dimethyl-2,6-dioxo-1,2,3,6-tetrahydro-7H-purin-7-yl)-N′-(3-hydroxy-4-methoxybenzylidene)acetohydrazide], for which the viability at 24 h, 50 µM in series [1] was 105 ± 1.2%. Besides, the inhibition at 25 µM in [2] stood at 63.2 ± 0.93%.

For the compound `COc1cc(/C=N/NC(=O)Cn2cnc3c2c(=O)n(C)c(=O)n3C)ccc1O` [18j, (E)-2-(1,3-Dimethyl-2,6-dioxo-1,2,3,6-tetrahydro-7H-purin-7-yl)-N′-(4-hydroxy-3-methoxybenzylidene)acetohydrazide], the viability at 24 h, 50 µM in [1] is 89 ± 1%. In series [3], the IC50 came to 14.6 ± 0.5 µM. Also, the inhibition at 25 µM in [2] was found to be 92.2 ± 0.86%.

Consider `COc1ccc(/C=N/NC(=O)Cn2cnc3c2c(=O)n(C)c(=O)n3C)cc1` [18l, (E)-2-(1,3-Dimethyl-2,6-dioxo-1,2,3,6-tetrahydro-7H-purin-7-yl)-N′-(4-methoxybenzylidene)acetohydrazide], for which the viability at 24 h, 50 µM in [1] came out at 93 ± 1%. Besides, the inhibition at 25 µM in series [2] came out at 85.4 ± 0.87%.

In the case of `COC(=O)[C@@H](N)CCCNC(N)=N[N+](=O)[O-]` [L-NAME, L-NG-nitro arginine methyl ester, reference compound], the inhibition at 250 µM in series [2] was found to be 84.8 ± 0.9%.

Consider `Cn1c(=O)c2c(ncn2CC(=O)O)n(C)c1=O` [compound 2, theophylline-7-acetic acid, reference compound], for which the viability at 24 h, 50 µM in series [1] was found to be 85 ± 1.7%. For the same compound, the inhibition at 25 µM in [2] was determined as 58.7 ± 1.82%.

For the compound `Cn1c(=O)c2c(ncn2CC(=O)N/N=C2/C(=O)Nc3ccccc32)n(C)c1=O` [compound 19, (E)-2-(1,3-Dimethyl-2,6-dioxo-1,2,3,6-tetrahydro-7H-purin-7-yl)-N′-(2-oxoindolin-3-ylidene)acetohydrazide], in series [1], the viability at 24 h, 50 µM was found to be 89.5 ± 1.1%. Further, the “Reduction of TNF-α” value in the series with TNF-α (1 μM) was determined as 31.8%; with TNF-α (10 μM), 53%. Moreover, the half-life at 75 μM in series [4] was 1.8 h. The compound further displayed an IC50 in series [3] of 3.3 ± 0.2 µM. For the same compound, the “Reduction of IL-1β” value in the series on IL-1β (1 μM) was 49.4%. Moreover, the “Downregulation of IL-1β” value with IL-1β (10 μM) was 66.7%. Also, the inhibition at 25 µM in series [2] turned out to be 90 ± 0.88%. Moreover, the “Decrease of IL-6 levels” value in the series on IL-6 (1 μM, RAW 264.7, in comparison to cells induced by LPS) came out at 47.5%; with IL-6 (10 μM, RAW 264.7, in comparison to LPS treated cells), 57.7%.

On to `NC(=S)NN=C1C(=O)Nc2ccccc21` [isatin thiosemicarbazone], for which the Survival rate entry with SK-N-SH Cells is “approximately 100%”.

For the compound `Cn1c(=O)c2[nH]cnc2n(C)c1=O` [theophylline], the “Effect on TNF production” value with TNF is reported as “suppress TNF production”.

A word on the viability: it is a read-out of living cells in per cent, often relative to untreated cells. Broadly, the inhibition is the drop in the measured response relative to a control, in per cent. The term IC50 denotes the concentration at which inhibition is half-maximal. Higher therefore signals a need for much substance. One may read the half-life as the time needed for the level to fall by half in the phase considered. A high value points to slow loss.

(Values after publication PMC10463010 (RSC Advances, 2023).)
